Reference: patent US20080109040A1, “METHOD OF TREATING ARRHYTHMIAS” (priority 2002, published 2008)
Read-outs that look alike come from different tables or passages of the source.

Tests used:
[1] = tested on: patients with LQT3-ΔKPQ mutation; assay: 8-hour intravenous ranolazine infusion in patients with hereditary long QT-syndrome LQT3-ΔKPQ; type: in vivo, human
Description: Subjects were drawn from the U.S. portion of the international LQTS Registry. Eligibility criteria for enrollment in the study were genotype confirmed LQT3-ΔKPQ mutation with QTc>0.47 sec, males or females age 18-55 years of age, and signed informed consent to participate in this study. Patients already taking beta-blocking medication were continued on the drug. Patients with an implanted pacemaker or defibrillator or those with prior cervical-thoracic sympathetic ganglionectomy were not excluded. Exclusion criteria included significant comorbility that would preclude the patient's safe participation in this study, pregnancy or women of child-bearing age not receiving appropriate contraceptive therapy with any other sodium-channel blocker, use of medications that inhibit CYP-3A4 hepatic enzymes, (including diltiazem or verapamil) and psycho-social problems that could compromise compliance with the protocol. Thirteen patients with the LQT3-ΔKPQ mutation from two unrelated families met the eligibility criteria without exclusion, and of eight contacted patients five agreed to participate in the study.
Each patient had clinical and laboratory assessment including ultrasound evaluation on Day-2. Baseline studies off drug began at 8:00 am on Day-1: 12-lead ECG recorded at 8:00 am and every 0.5 hour for 8 hours and then at 2, 4, and 16 hours thereafter; a continuous 12-lead Holter was recorded for 24 hours. The 8-hour infusion of intravenous ranolazine was started at 8:00 am on Day 1 with time-matched ECG recordings at the same times as on Day-1. The second echocardiogram was obtained just before completion of the 8-hour of ranolazine infusion on Day 1. Blood samples for plasma ranolazine concentrations were drawn at hourly intervals during the ranolazine infusion, and at 2, 4, and 16 hours following completion of ranolazine infusion on Day 1.
Five patients with LQT3-ΔKPQ mutation were prospectively investigated during 8-hour intravenous infusions of ranolazine with electrocardiographic and echocardiographic evaluation before and during ranolazine administration. Ranolazine was infused at a rate of 40 mg/hr for 3 hours, with doubling of the infusion rate during the subsequent 5 hours while obtaining hourly ranolazine blood levels.
Changes in electrocardiographic parameters from before to during ranolazine infusion were evaluated by time-matched, paired t-test analyses, with repeated measures analysis of variance (ANOVA) where appropriate. The primary pre-specified electrocardiographic QTc analysis utilized a mixed-effects linear model of the change from time-matched baseline in QTc during ranolazine infusion with a fixed effect for time and a random effect for subject. A linear regression equation relating ranolazine blood level to QTc was developed using an analysis of covariance with effects for ranolazine level, subject and the interaction of subject with ranolazine level. The echocardiographic analyses involved evaluation of baseline parameters relative to normal standards for the laboratory as well as statistical comparisons of change in specific quantitative parameters between baseline and the peak ranolazine infusion. Two-sided p-values<0.05 were considered significant.
12-lead ECGs and 24-hour 12-lead Holter ECGs were obtained to evaluate ventricular repolarization before, during, and after ranolazine infusion. The QT interval and the Fridericia corrected QT interval for heart rate (QTc) were measured according to standard criteria. QT was measured from the beginning of QRS complex to the end of T wave determined by an intersection of T wave and isoelectric line or to the nadir between T and U waves. U waves were not incorporated in the measurement of QT interval. Measurement of T-wave patterns included QT peak (ms), T-wave duration (ms), T peak-T end (ms), and T-wave amplitude (mv). The ECG parameters were measured on 3 consecutive beats in lead II, with lead aVF or V5 used if lead II was technically unsatisfactory. […]

Purkinje fibers = tested on: Purkinje fibers; set-up: species or system canine; conditions: for Amplitude (phase 0) / Overshoot / RMP: BCL = 500 msec
Description: Dogs weighing 20-25 kg were anticoagulated with heparin and anesthetized with pentobarbital (30-35 mg/kg, i.v.). The chest was opened via a left thoracotomy, the heart excised and placed in a cold cardioplegic solution ([K^+]o=8 mmol/L, 4° C.). Free running Purkinje fibers were isolated from the left and right ventricles. The preparations were placed in a tissue bath (5 ml volume with flow rate of 12 ml/min) and allowed to equilibrate for at least 30 min while superfused with an oxygenated Tyrode's solution (pH=7.35, t^0=37±0.5° C.) and paced at a basic cycle length (BCL) of 1 Hz using point stimulation. The composition of the Tyrode's solution was as following (in mM): NaCl 129, KCl 4, NaH2PO4 0.9, NaHCO3 20, CaCl2 1.8, MgSO4 0.5, and D-glucose 5.5.
Action potential recordings: Transmembrane potentials were recorded using standard glass microelectrodes filled with 2.7 M KCl (10 to 20 MΩ DC resistance) connected to a high input-impedance amplification system (World Precision Instruments, Sarasota, Fla., USA).
Control recordings were obtained after a 30 min equilibration period. Increasing concentrations of ranolazine (1, 5, 10, 50, and 100 μM) were evaluated, with recordings started 20 minutes after the addition of each concentration of the drug. The rate-dependence of ranolazine's actions were evaluated by recording action potentials at basic cycle lengths (BCL) of 300, 500, 800, 1000, 2000, and 5000 msec. In this report only BCLs of 500 and 2000 msec are presented as representative of relatively rapid and slow pacing rates.
Because low extracellular K^+ is known to promote drug-induced APD prolongation and early afterdepolarizations, we determined the effects of ranolazine in the presence of normal (4 mM) and low (3 mM) [K^+]o.
In the final phase, we evaluate the effects of ranolazine on EADs induced by d-sotalol (100 μM), a fairly specific IKr blocker.

[2] = peak ranolazine infusion vs baseline
[3] = ranolazine 1.0 μM, [K+]0 = 3.0 mM
[4] = ranolazine 1.0 μM, [K+]0 = 4.0 mM
[5] = ranolazine 5.0 μM, [K+]0 = 3.0 mM
[6] = ranolazine 5.0 μM, [K+]0 = 4.0 mM
[7] = ranolazine 10.0 μM, [K+]0 = 3.0 mM
[8] = ranolazine 10.0 μM, [K+]0 = 4.0 mM
[9] = ranolazine 50.0 μM, [K+]0 = 3.0 mM
[10] = ranolazine 50.0 μM, [K+]0 = 4.0 mM
[11] = ranolazine 100.0 μM, [K+]0 = 3.0 mM
[12] = ranolazine 100.0 μM, [K+]0 = 4.0 mM

With COc1ccccc1OCC(O)CN1CCN(CC(=O)Nc2c(C)cccc2C)CC1 (racemic) [ranolazine, N-(2,6-dimethylphenyl)-4-[2-hydroxy-3-(2-methoxyphenoxy)propyl]-1-piperazineacetamide] the QTc during ranolazine ([1]; 8-hour iv infusion, baseline 558±55 ms) was 532 ± 46 ms, the “Mean reduction in QTc from baseline” value ([1]; entire 8-hour iv ranolazine infusion, 5 patients) was 26 ± 3 ms and the “Average slope of QTc vs. ranolazine plasma concentration” value ([1]; human, in vivo) was −24 ms per 1000 ng/ml. The “Decrease in mitral E-wave deceleration time” value [1, 2] was 18%, the “Increase in mitral E-wave velocity” value [1, 2] was 27% and the “Shortening in left ventricular isovolumic relaxation time” value [1, 2] was 15%. For the same compound, the Adverse effects ([1]; study patients) was “No adverse effects”, the “Lowest concentration suppressing EADs induced by d-sotalol” value (Purkinje fibers) was 5 micromolar/L and the “Amplitude (phase 0)” value (Purkinje fibers; [3]) was 132 ± 6. The Overshoot (Purkinje fibers; [3]) was 40 ± 5, the RMP (Purkinje fibers; [3]) was −92 ± 1 and the “Amplitude (phase 0)” value (Purkinje fibers; [4]) was 120 ± 9. The Overshoot (Purkinje fibers; [4]) was 32 ± 7, the RMP (Purkinje fibers; [4]) was −90 ± 2 and the “Amplitude (phase 0)” value (Purkinje fibers; [5]) was 130 ± 5. For the same compound, the Overshoot (Purkinje fibers; [5]) was 38 ± 4, the RMP (Purkinje fibers; [5]) was −92 ± 1 and the “Amplitude (phase 0)” value (Purkinje fibers; [6]) was 124 ± 3. The Overshoot (Purkinje fibers; [6]) was 34 ± 7, the RMP (Purkinje fibers; [6]) was −90 ± 2 and the “Purkinje fibers in which d-sotalol-induced EADs were abolished” value (Purkinje fibers; ranolazine 5 μM, d-sotalol 100 μM) was 4 out of 4. For the same compound, the “Amplitude (phase 0)” value (Purkinje fibers; [7]) was 128 ± 4, the Overshoot (Purkinje fibers; [7]) was 37 ± 4 and the RMP (Purkinje fibers; [7]) was −92 ± 1. The “Amplitude (phase 0)” value (Purkinje fibers; [8]) was 122 ± 7, the Overshoot (Purkinje fibers; [8]) was 32 ± 6 and the RMP (Purkinje fibers; [8]) was −90 ± 3. The “Amplitude (phase 0)” value (Purkinje fibers; [9]) was 121 ± 7, the Overshoot (Purkinje fibers; [9]) was 29 ± 6 and the RMP (Purkinje fibers; [9]) was −92 ± 1. For the same compound, the “Amplitude (phase 0)” value (Purkinje fibers; [10]) was 117 ± 7, the Overshoot (Purkinje fibers; [10]) was 28 ± 7 and the RMP (Purkinje fibers; [10]) was −89 ± 3. For the same compound, the “Amplitude (phase 0)” value (Purkinje fibers; [11]) was 114 ± 7, the Overshoot (Purkinje fibers; [11]) was 24 ± 7 and the RMP (Purkinje fibers; [11]) was −90 ± 2. The “Amplitude (phase 0)” value (Purkinje fibers; [12]) was 106 ± 12, the Overshoot (Purkinje fibers; [12]) was 19 ± 11 and the RMP (Purkinje fibers; [12]) was −87 ± 3. For the same compound, the “Effect on APD” value (Purkinje fibers; ranolazine 1-10 μM, [K+]o 4 mM) was “either no effect or a relatively small abbreviation”, the “Effect on Vmax” value (Purkinje fibers; ranolazine 50 and 100 μM) was “significant reduction” and the “Effect on APD90” value (Purkinje fibers; ranolazine 50 and 100 μM, [K+]o 4 mM) was “markedly abbreviated at slow, but not at rapid pacing rates”. For the same compound, the “Effect on APD50” value (Purkinje fibers; ranolazine 50 and 100 μM, rapid and slow rates, [K+]o 4 mM) was “significantly abbreviated”.
